Laboratory results from US20150030706A1, “USE OF ESSENTIAL OILS, SUPERCRITICAL EXTRACTS AND AQUEOUS RESIDUES GENERATED DURING A PROCESS FOR OBTAINING ORGANIC EXTRACTS FROM THE ARTEMISIA ABSINTHIUM L. PLANT” (CONSEJO SUPERIOR DE INVESTIGACIONES CIENTIFICAS (CSIC), priority 2012, published 2015).

Tested on: Meloidogyne javanica
Assay: Nematicide activity against infective juveniles (J2)
Format: in vivo
Description: The assays were carried out according to the methodology described for Meloidogyne sp (Hernández-Carlos et al. 2011, Sosa et al. 2012) using the biological stage of infected juvenile (J2) Meloidogyne javanica in the assays. The activity of each product was quantified at different concentrations, shown in Table 5 and in at least four copies, each bio-assay was repeated at least three times and the nematostatic/nematicide activity was determined from the percentage of infected juvenile plants immobilised/which died.

SMILES: C=C/C(C)=C\CC(O)C(C)(C)O (stereo not shown) [(Z)-2,6-dimethylocta-5,7-diene-2,3-diol]
- M. javanica % J2 immobilised Average (Concentration 0.02 μg/μl): 4.2%
- M. javanica % J2 immobilised Average (Concentration 0.1 μg/μl): 19.7%
- M. javanica % J2 immobilised Average (Concentration 0.25 μg/μl): 43.9%
- M. javanica % J2 immobilised Average (Concentration 0.5 μg/μl): 100%
